Assay results published in paper PMC6269977, “Chemistry and Antiviral Activity of Arrabidaea pulchra (Bignoniaceae)” (Molecules, 2013).
≈ marks a conversion by molar mass, not a printed value.

Assays:
[1] = system: Human herpesvirus 1 (HSV-1); assay: microbe, parasite or virus in culture; type: cell-based; conditions: for EC50: Human alphaherpesvirus 1; for EC50 / HSV-1 EC50: viral titer TCID50/mL 2.5 × 10^6 in 48 h, NA = no activity in the assayed concentrations
[2] = system: Vaccinia virus Western Reserve (VACV-WR); type: cell-based
[3] = system: Murine encephalomyocarditis virus (EMCV); type: cell-based; conditions: viral titer TCID50/mL 1.0 × 10^6 in 48 h; NA = no activity in the assayed concentrations
[4] = system: Dengue virus 2 (DENV-2); assay: microbe, parasite or virus in culture; type: cell-based; conditions: DENV2, viral titer TCID50/mL 1.0 × 10^4 in 72 h
[5] = system: respiratory syncytial virus (RSV); conditions: isolated from Markhamia lutea; cited from earlier work
[6] = system: HSV-1; conditions: cited from earlier work
[7] = system: HSV-2; conditions: cited from earlier work
[8] = in vitro; conditions: African green monkey
[9] = in vitro; conditions: rhesus monkey

Row | Compound | EC50 [1] | HSV-1 EC50 [1] | VACV-WR EC50 [2] | EMCV EC50 [3] | EC50 [4] | RSV EC50 [5] | HSV-1 EC50 [6] | anti-herpes activity ([6]; previous report) | HSV-2 EC50 [7] | CC50 [8] | CC50 [9] | HSV-1 virus inhibition ([1]; at concentrations as low 2 μg/mL, Figure 4A)
1 | Nc1nc2c(ncn2COCCO)c(=O)[nH]1 [Acyclovir, reference compound] | 40 µg/mL (≈ 178 µM) |  |  |  |  |  |  |  |  |  |  | 
2 | C[C@@H]1O[C@@H](O[C@@H]2[C@@H](O)[C@H](OCCc3ccc(O)c(O)c3)O[C@H](CO)[C@H]2OC(=O)/C=C/c2ccc(O)c(O)c2)[C@H](O)[C@H](O)[C@H]1O [AP 1, verbascoside] |  | no effect was observed | not active | not active | 3.4 ± 0.4 µg/mL (≈ 5.44 µM) | 0.80 µg/mL | 58.0 µg/mL | had not shown anti-herpes activity | 8.9 µg/mL | > 200 µg/mL | 12.9 ± 1.1 µg/mL (≈ 20.7 µM) | 
3 | C[C@H]1[C@H](C)CC[C@]2(C(=O)O)CC[C@]3(C)C(=CC[C@@H]4[C@@]5(C)CC[C@H](O)C(C)(C)[C@@H]5CC[C@]43C)[C@H]12 [AP 3, ursolic acid] | 6.2 ± 0.1 µg/mL (≈ 13.6 µM) | low activity | not active | not active | 3.2 µg/mL (≈ 7.01 µM) |  |  |  |  | 8.1 ± 0.9 µg/mL (≈ 17.7 µM) | 9.9 ± 1.3 µg/mL (≈ 21.7 µM) | 50%
